Where two headings read alike, the source gives them in different places.
System: E. coli (strains ATCC BAA 1427, 1428, 1429, 1430 and 1431)
Assay type: cell-based
Parameters: key: + = Growth; −1 = Inhibition; − = No Growth
Protocol: A microtiter experiment was conducted to evaluate the pathogen killing effect of the following pathogen killing agents: (1) about 100 μL of non-live-bacteria concentrate having dead bacteria alone (obtained from Example 8), (2) a blend of about 50 μL of non-live-bacteria concentrate having dead bacteria (obtained from Example 8), and about 50 μL of approximately 0.1 M lactic acid, or (3) about 100 μL of approximately 0.1 M lactic acid alone when added into Swanson® chicken broth and a source of pathogens.
About 100 μL chicken broth was added into microtiter wells 1 through 12. The pathogen killing agents were added at about 100 μL into wells 1 and 2. About 100 μL from the mixture of pathogen killing agent and chicken broth were then added to well 3 and then repeated thereafter to create the following dilutions, by volume, until well 11: 1:1, 1:2, 1:4, 1:8, 1:16, 1:32, 1:64, 1:128, 1:256, 1:512, and 1:1024. Next, into all microtiter wells, about 50 μL of a solution containing E. coli (strains ATCC BAA 1427, 1428, 1429, 1430 and 1431) were added such that an approximately 1×10^5 cfu/gram concentration of E. coli in each well was obtained. Well 12 served as the positive control by having no pathogen killing agent added. Microtiter plates containing the wells described above were then placed into an incubator at about 35° C. for either about 24 or about 48 hours. After the appropriate incubation time, microtiter plates were removed from the incubator and the color indicator (about 50 μL iodonitrotetrazolium salt reagent) was added into each well and the microtiter plate placed back into the incubator at about 35° C. for about an additional 4 hours to produce the desired color change reaction. Upon removal from the incubator, the color change and pH in each well were recorded.

CC(O)C(=O)O (stereo not shown) [Lactic Acid, lactic acid]
Microtiter well result, E. coli growth (dilution 1:1, After Incubating at 35° C. for 24 hours): − | Microtiter well result, E. coli growth (dilution 1:1, After Incubating at 35° C. for 48 hours): − | Microtiter well result, E. coli growth (dilution 1:2, After Incubating at 35° C. for 24 hours): − | Microtiter well result, E. coli growth (dilution 1:2, After Incubating at 35° C. for 48 hours): − | Microtiter well result, E. coli growth (dilution 1:4, After Incubating at 35° C. for 24 hours): − | Microtiter well result, E. coli growth (dilution 1:4, After Incubating at 35° C. for 48 hours): + | Microtiter well result, E. coli growth (dilution 1:8, After Incubating at 35° C. for 24 hours): − | Microtiter well result, E. coli growth (dilution 1:8, After Incubating at 35° C. for 48 hours): + | Microtiter well result, E. coli growth (dilution 1:16, After Incubating at 35° C. for 24 hours): − | Microtiter well result, E. coli growth (dilution 1:16, After Incubating at 35° C. for 48 hours): + | Microtiter well result, E. coli growth (dilution 1:32, After Incubating at 35° C. for 24 hours): − | Microtiter well result, E. coli growth (dilution 1:32, After Incubating at 35° C. for 48 hours): + | Microtiter well result, E. coli growth (dilution 1:64, After Incubating at 35° C. for 24 hours): − | Microtiter well result, E. coli growth (dilution 1:64, After Incubating at 35° C. for 48 hours): + | Microtiter well result, E. coli growth (dilution 1:128, After Incubating at 35° C. for 24 hours): + | Microtiter well result, E. coli growth (dilution 1:128, After Incubating at 35° C. for 48 hours): −1 | Microtiter well result, E. coli growth (dilution 1:256, After Incubating at 35° C. for 24 hours): + | Microtiter well result, E. coli growth (dilution 1:256, After Incubating at 35° C. for 48 hours): + | Microtiter well result, E. coli growth (dilution 1:512, After Incubating at 35° C. for 24 hours): + | Microtiter well result, E. coli growth (dilution 1:512, After Incubating at 35° C. for 48 hours): + | Microtiter well result, E. coli growth (dilution 1:1024, After Incubating at 35° C. for 24 hours): + | Microtiter well result, E. coli growth (dilution 1:1024, After Incubating at 35° C. for 48 hours): +
